Legend:
[1] = Potency index, ratio of cisplatin IC50 to compound IC50 for anticancer activity against cisplatin/camptothecin resistant human CLS-354 cells by MTT assay; type: functional
[2] = Anticancer activity against human CLS-354 cells assessed as cell growth inhibition measured after 24 hrs by MTT assay; type: functional, cell-based; conditions: CLS-354, 24 h
[3] = Anticancer activity against cisplatin/camptothecin resistant human CLS-354 cells assessed as cell growth inhibition measured after 24 hrs by MTT assay; type: functional, cell-based; conditions: CLS-354, 24 h
[4] = system: A549; test: Antiproliferative activity against human A549 cells assessed as cell growth inhibition measured after 48 hrs by MTT assay; type: functional, cell-based; conditions: A549, 48 h
[5] = system: MCF7; test: Antiproliferative activity against human MCF7 cells assessed as cell growth inhibition measured after 48 hrs by MTT assay; type: functional, cell-based; conditions: MCF7, 48 h
[6] = system: AGS; test: Antiproliferative activity against human AGS cells assessed as cell growth inhibition measured after 72 hrs by MTT assay; type: functional, cell-based
[7] = system: SGC-7901; test: Antiproliferative activity against human SGC-7901 cells assessed as cell growth inhibition measured after 72 hrs by MTT assay; type: functional, cell-based; conditions: SGC-7901, 72 h

In the case of `CC(C)=CCC[C@@]1(C)C=Cc2c(ccc3c2[nH]c2cc(O)c(C)cc23)O1`, the “Ratio IC50” value [1] is reported as 2.1, the IC50 [2] is reported as 14.4 µM and the IC50 [3] is reported as 16 µM.
`Cn1c2ccccc2c2cc(C3NCCc4c3[nH]c3ccccc43)ccc21` (configuration not stated) gave an IC50 [4] of 5.04 µM and an IC50 [5] of 5.48 µM.
In the case of `N=C(N)N/N=C/c1ccc2c(c1)c1ccccc1n2Cc1ccccc1F`, the IC50 [6] is reported as 0.4 µM and the IC50 [7] is reported as 1.5 µM.
